According to ChEMBL document CHEMBL4414609, “High-Affinity Alkynyl Bisubstrate Inhibitors of Nicotinamide N-Methyltransferase (NNMT)” (J Med Chem, 2019):

Columns and labels:
[1] = target: T1, TPMT (thiopurine S-methyltransferase) (Homo sapiens, UniProt P51580); test: Inhibition of human TPMT expressed in Escherichia coli assessed as reduction in SAH level at 10 uM using 6-mercaptopurine as substrate in presence of SAM incubated for 30 mins by LC-MS/MS analysis relative to control; conditions: recombinant human TPMT expressed in Escherichia coli, probe 6-mercaptopurine
T1 sequence (P51580 whole entry): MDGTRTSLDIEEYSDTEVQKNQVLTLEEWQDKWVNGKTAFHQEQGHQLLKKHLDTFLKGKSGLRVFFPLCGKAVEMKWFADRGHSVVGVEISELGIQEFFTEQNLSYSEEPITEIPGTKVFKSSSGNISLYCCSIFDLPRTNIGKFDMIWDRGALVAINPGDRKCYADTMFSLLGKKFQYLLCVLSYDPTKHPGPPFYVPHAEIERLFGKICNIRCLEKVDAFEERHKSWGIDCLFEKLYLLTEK

[2] = target: INMT (indolethylamine N-methyltransferase) (Homo sapiens, UniProt O95050); test: Inhibition of wild type human INMT expressed in Escherichia coli at 10 uM using tryptamine as substrate in presence of SAM incubated for 30 mins by MTase-Glo assay relative to control; conditions: probe tryptamine
Sequence of INMT (indolethylamine N-methyltransferase) (O95050 whole entry): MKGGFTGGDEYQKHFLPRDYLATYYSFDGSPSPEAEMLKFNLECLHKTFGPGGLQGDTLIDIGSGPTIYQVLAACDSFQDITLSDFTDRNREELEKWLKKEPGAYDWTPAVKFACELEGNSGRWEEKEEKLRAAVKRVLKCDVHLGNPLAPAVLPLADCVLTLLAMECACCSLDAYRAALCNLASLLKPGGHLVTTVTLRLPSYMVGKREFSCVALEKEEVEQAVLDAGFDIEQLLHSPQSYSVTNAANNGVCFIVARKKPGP

[3] = target: T2, COMT (catechol O-methyltransferase) (Homo sapiens, UniProt P21964); test: Inhibition of human COMT expressed in Escherichia coli at 10 uM assessed as reduction in SAH level using pyrocatechol as substrate in presence of SAM incubated for 15 mins by LC-MS/MS analysis relative to control; conditions: recombinant human COMT expressed in Escherichia coli, probe pyrocatechol
T2 sequence (P21964 whole entry): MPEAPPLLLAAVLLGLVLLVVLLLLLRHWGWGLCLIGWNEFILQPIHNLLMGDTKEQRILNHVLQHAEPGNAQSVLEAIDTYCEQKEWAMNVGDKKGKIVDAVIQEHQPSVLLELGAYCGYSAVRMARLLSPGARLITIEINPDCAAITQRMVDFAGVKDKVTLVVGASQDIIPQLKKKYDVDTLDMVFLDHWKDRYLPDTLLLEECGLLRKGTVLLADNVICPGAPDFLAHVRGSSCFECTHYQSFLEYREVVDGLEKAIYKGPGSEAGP

[4] = target: T3, GAMT (guanidinoacetate N-methyltransferase) (Homo sapiens, UniProt Q14353); test: Inhibition of human GAMT expressed in Escherichia coli at 10 uM assessed as reduction in SAH level using guanidineacetic acid as substrate in presence of SAM incubated for 30 mins by LC-MS/MS analysis relative to control; conditions: recombinant human GAMT expressed in Escherichia coli, probe guanidineacetic acid
[5] = target: T4, PNMT (phenylethanolamine N-methyltransferase) (Homo sapiens, UniProt P11086); test: Inhibition of human PNMT expressed in Escherichia coli at 1 uM assessed as reduction in SAH level using DL-normetanephrine as substrate in presence of SAM incubated for 45 mins by LC-MS/MS analysis relative to control; conditions: recombinant human PNMT expressed in Escherichia coli, probe DL-normetanephrine
T4 sequence (P11086 whole entry): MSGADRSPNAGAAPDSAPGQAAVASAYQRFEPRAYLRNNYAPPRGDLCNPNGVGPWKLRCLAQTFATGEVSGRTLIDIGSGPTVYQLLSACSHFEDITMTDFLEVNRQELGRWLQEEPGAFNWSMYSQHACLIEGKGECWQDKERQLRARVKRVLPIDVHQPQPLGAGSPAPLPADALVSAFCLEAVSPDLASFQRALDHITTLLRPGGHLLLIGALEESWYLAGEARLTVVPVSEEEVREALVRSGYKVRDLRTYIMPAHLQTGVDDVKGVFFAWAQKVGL

[6] = target: T3, GAMT (guanidinoacetate N-methyltransferase); test: Inhibition of human GAMT expressed in Escherichia coli at 1 uM assessed as reduction in SAH level using guanidineacetic acid as substrate in presence of SAM incubated for 30 mins by LC-MS/MS analysis relative to control; conditions: recombinant human GAMT expressed in Escherichia coli, probe guanidineacetic acid
[7] = target: T5, GNMT (glycine N-methyltransferase) (Homo sapiens, UniProt Q14749); test: Inhibition of human GNMT expressed in Escherichia coli at 1 uM assessed as reduction in SAH level using glycine as substrate in presence of SAM incubated for 30 mins by LC-MS/MS analysis relative to control; conditions: recombinant human GNMT expressed in Escherichia coli, probe glycine
T5 sequence (Q14749 whole entry): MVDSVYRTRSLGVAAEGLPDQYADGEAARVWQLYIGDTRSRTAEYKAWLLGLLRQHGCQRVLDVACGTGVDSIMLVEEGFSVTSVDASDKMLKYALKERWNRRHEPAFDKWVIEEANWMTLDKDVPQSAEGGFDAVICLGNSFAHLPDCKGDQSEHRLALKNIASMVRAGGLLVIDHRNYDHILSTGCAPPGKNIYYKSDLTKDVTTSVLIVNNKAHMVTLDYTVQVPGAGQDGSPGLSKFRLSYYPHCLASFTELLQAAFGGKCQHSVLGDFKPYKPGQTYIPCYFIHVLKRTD

[8] = target: HNMT (histamine N-methyltransferase) (Homo sapiens, UniProt P50135); test: Inhibition of human HNMT expressed in Escherichia coli at 1 uM assessed as reduction in SAH level using histamine as substrate in presence of SAM incubated for 15 mins by LC-MS/MS analysis relative to control; conditions: recombinant human HNMT expressed in Escherichia coli, probe histamine
Sequence of HNMT (histamine N-methyltransferase) (P50135 whole entry): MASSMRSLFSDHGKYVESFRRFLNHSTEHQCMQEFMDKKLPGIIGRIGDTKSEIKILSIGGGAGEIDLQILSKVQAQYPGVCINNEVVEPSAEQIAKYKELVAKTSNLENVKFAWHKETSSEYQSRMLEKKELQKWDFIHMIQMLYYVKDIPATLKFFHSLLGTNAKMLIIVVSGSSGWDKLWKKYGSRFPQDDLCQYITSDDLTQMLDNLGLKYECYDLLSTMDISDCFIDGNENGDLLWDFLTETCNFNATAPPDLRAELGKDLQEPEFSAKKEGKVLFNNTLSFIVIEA

[9] = target: DNA (cytosine-5)-methyltransferase 3A (Homo sapiens, UniProt Q9Y6K1); test: Inhibition of human DNMT3a expressed in insect sf9 cells assessed as reduction in methylated poly(dI-dC)-Poly(dI-dC) level using poly(dI-dC)-poly(dI-dC) as substrate in presence of [3H] SAM incubated for 10 mins by scintillation counting
Sequence of DNA (cytosine-5)-methyltransferase 3A (Q9Y6K1 whole entry, looked up): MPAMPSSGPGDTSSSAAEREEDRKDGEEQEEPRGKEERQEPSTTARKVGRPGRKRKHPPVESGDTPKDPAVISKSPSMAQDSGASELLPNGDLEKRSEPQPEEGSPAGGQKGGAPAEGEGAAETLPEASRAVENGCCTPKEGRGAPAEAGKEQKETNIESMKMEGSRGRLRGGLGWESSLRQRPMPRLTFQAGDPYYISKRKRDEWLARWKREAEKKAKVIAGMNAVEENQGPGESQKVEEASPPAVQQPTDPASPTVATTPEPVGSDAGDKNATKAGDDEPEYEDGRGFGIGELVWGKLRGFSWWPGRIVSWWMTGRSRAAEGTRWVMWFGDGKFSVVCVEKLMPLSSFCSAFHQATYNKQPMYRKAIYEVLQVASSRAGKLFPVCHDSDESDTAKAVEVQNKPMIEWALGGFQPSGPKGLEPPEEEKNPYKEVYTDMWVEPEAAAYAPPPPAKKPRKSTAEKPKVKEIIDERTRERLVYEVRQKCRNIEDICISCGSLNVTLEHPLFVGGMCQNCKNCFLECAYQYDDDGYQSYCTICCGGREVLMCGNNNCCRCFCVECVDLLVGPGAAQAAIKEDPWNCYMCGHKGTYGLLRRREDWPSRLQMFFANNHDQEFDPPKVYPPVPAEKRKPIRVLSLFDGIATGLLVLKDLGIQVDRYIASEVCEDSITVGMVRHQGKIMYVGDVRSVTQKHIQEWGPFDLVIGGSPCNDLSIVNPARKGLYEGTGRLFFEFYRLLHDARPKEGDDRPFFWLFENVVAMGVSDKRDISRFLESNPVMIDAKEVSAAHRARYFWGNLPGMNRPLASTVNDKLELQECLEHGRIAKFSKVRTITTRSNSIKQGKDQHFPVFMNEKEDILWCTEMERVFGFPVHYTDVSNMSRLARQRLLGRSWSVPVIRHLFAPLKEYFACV

[10] = target: Protein arginine N-methyltransferase 1 (Homo sapiens, UniProt Q99873); test: Inhibition of human PRMT1 expressed in Escherichia coli assessed as reduction in methylated histone H4 full length level using histone H4 full length as substrate in presence of [3H] SAM incubated for 20 mins by scintillation counting
Sequence of Protein arginine N-methyltransferase 1 (Q99873 whole entry): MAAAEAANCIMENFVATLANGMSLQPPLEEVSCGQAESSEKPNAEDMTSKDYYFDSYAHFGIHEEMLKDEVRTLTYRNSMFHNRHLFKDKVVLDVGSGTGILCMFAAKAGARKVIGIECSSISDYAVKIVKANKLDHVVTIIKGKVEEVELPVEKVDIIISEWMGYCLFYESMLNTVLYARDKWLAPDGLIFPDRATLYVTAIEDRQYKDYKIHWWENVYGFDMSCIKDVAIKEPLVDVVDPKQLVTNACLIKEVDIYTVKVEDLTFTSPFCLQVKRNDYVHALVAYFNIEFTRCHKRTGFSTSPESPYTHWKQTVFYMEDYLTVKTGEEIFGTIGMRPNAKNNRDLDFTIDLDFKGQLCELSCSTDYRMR

[11] = target: Histone-lysine N-methyltransferase SETDB1 (Homo sapiens, UniProt Q15047); test: Inhibition of human SETDB1 expressed in sf9 insect cells assessed as reduction in methylated histone H3 full length level using histone H3 full length as substrate in presence of [3H] SAM incubated for 30 mins by scintillation counting
[12] = target: Indolethylamine N-methyltransferase (Homo sapiens, UniProt O95050); test: Inhibition of wild type human INMT expressed in Escherichia coli using tryptamine as substrate in presence of SAM incubated for 30 mins by MTase-Glo assay
Sequence of Indolethylamine N-methyltransferase (O95050 whole entry): as the sequence (O95050 whole entry) above

[13] = system: U2OS; test: Cytotoxicity against human U2OS cells at 100 uM after 48 hrs by CellTiter-Glo luminescent cell viability; format: cell-based
[14] = Permeability across apical to basolateral side in human Caco2 cells after 60 mins by HPLC-MS/MS analysis; format: ADME, cell-based; conditions: caco-2, 1 h

## NC(=O)c1cccc(C#C[C@@H](CC[C@H](N)C(=O)O)C[C@H]2O[C@@H](n3cnc4c(N)ncnc43)[C@H](O)[C@@H]2O)c1
[1]
  inhibition at 0.5 h, 10 µM: 76%
[2]
  inhibition at 0.5 h, 10 µM: 53%
[3]
  inhibition at 0.25 h, 10 µM: 43%
[4]
  inhibition at 0.5 h, 10 µM: 26%
[5]
  inhibition at 0.75 h, 1 µM: 0%
[6]
  inhibition at 0.5 h, 1 µM: 0%
[7]
  inhibition at 0.5 h, 1 µM: 4%
[8]
  inhibition at 0.25 h, 1 µM: 6%
[9]
  IC50: 7.6 µM
[10]
  IC50: > 10 µM
[11]
  IC50: > 10 µM
[12]
  IC50: 3.4 µM
[13]
  Activity: Non-Toxic
[14]
  permeability: Impermeable
